Source: US5686486A, “4-hydroxy-benzopyran-2-ones and 4-hydroxy-cycloalkyl[b]pyran-2-ones useful to treat retroviral infections” (priority 1995, dated 1997)
Values joined by “and” are separate entries in the source; they are usually repeats but may differ in a detail not shown here. Equal entries are not always repeated. Where two headings read alike, the source gives them in different places.

Biological target: HIV-1 protease (Human immunodeficiency virus type 1 group M subtype B, UniProt P04585)
Test: biochemical
Details: for inhibition at 0.41 µM: read-out: HIV-1 Protease % Inhib, dose 0.410 uM; for inhibition at 1.23 µM: read-out: HIV-1 Protease % Inhib, dose 1.230 uM; for inhibition at 3.7 µM: read-out: HIV-1 Protease % Inhib, dose 3.700 uM; for inhibition at 11 µM: read-out: HIV-1 Protease % Inhib, dose 11.000 uM; for inhibition at 33 µM: read-out: HIV-1 Protease % Inhib, dose 33.000 uM
Summary of the method: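 Percent inhibition derived from fluorescent cleavage product separated by filtration after streptavidin-bead capture of intact biotin/FITC substrate. Reaction: enzyme (10 μl, 0.1 μM stock) with substrate (20 μl, 0.2 μM stock) and compound, 1 h at room temperature in dark, pH 5.5 acetate buffer with 1.0 M NaCl and 0.05% NP-40.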

[1] = read-out: HIV-1 Protease % Inhib, dose 1.000 uM
[2] = read-out: HIV-1 Protease % Inhib, dose 10.000 uM
[3] = read-out: HIV-1 Protease % Inhib, dose 100.000 uM
[4] = dose 1.000 uM, read-out: HIV-1 Protease % Inhib
[5] = dose 10.000 uM, read-out: HIV-1 Protease % Inhib
[6] = dose 100.000 uM, read-out: HIV-1 Protease % Inhib
[7] = dose 1.100 uM, read-out: HIV-1 Protease % Inhib
[8] = dose 3.300 uM, read-out: HIV-1 Protease % Inhib
[9] = dose 30.000 uM, read-out: HIV-1 Protease % Inhib

| SMILES | inhibition at 1 µM [1] [%] | inhibition at 10 µM [2] [%] | inhibition at 100 µM [3] [%] | also measured |
| --- | --- | --- | --- | --- |
| O=c1oc2ccccc2c(O)c1C(C1CC1)C1CC1 [Example 104, 3-(dicyclopropyl)methyl-4-hydroxycoumarin] | 12.2 | 68.7 | 106 | IC50 (HIV-1 Protease IC50): 6.74 µM |
| CCC(c1ccccc1)c1c(O)c2ccccc2oc1=O (centres unmarked) [Example 105, 4-hydroxy-3-(1-phenylpropyl)-coumarin] | – | – | – | IC50 (read-out: HIV-1 Protease IC50): 4.88 µM and 3.88 µM |
| CCC(=O)c1ccc(C(CC)c2c(O)c3ccccc3oc2=O)cc1 (centres unmarked) [Example 106, Coumarin, 4-hydroxy-3-[1-(4-propionylphenyl)propyl]-] | < 10 | 11.7 | 71 | – |
| CCC(c1ccccc1)c1c(O)c2c(oc1=O)CCCCCC2 (centres unmarked) [Example 108, 5,6,7,8,9,10-Hexahydro-4-hydroxy-3-(1-phenylpropyl)-2H-cycloocta[b]pyran-2-one] | 72.6 | 95.5 | 94.2 | – |
| CCC(c1ccccc1)c1c(O)c2c(oc1=O)CCCCC2 (centres unmarked) [Example 110, 6,7,8,9-Tetrahydro-4-hydroxy-3-(1-phenylpropyl)-cyclohepta[b]pyran-2(5H)-one] | 16.9 | 73.8 | 99.9 | – |
| O=c1oc2c(c(O)c1C(c1ccccc1)C1CC1)CCC2 (centres unmarked) [Example 113, 3-(Cyclopropylphenylmethyl)-6,7-dihydro-4-hydroxy-cyclopenta[b]pyran-2(5H)-one] | – | – | – | inhibition at 1 µM [4]: 39.6%; inhibition at 10 µM [5]: 99.8%; inhibition at 100 µM [6]: 109% |
| O=c1oc2c(c(O)c1C(c1ccccc1)C1CC1)CCCCCCCCCC2 (centres unmarked) [Example 114, 3-(Cyclopropylphenylmethyl)-5,6,7,8,9,10,11,12,13,14-decahydro-4-hydroxy-2H-cyclododeca[b]pyran-2-one] | – | – | – | inhibition at 1 µM [4]: < 10%; inhibition at 10 µM [5]: < 10%; inhibition at 100 µM [6]: 14.1% |
| O=c1oc2c(c(O)c1C(C1CC1)C1CC1)CCCCCC2 [Example 118, 3-(Dicyclopropylmethyl)-5,6,7,8,9,10-hexahydro-4-hydroxy-2H-cycloocta[b]pyran-2-one] | – | – | 105 | inhibition at 0.41 µM: 68.7%; inhibition at 1.23 µM: 87.9%; inhibition at 3.7 µM: 99%; inhibition at 11 µM: 110%; inhibition at 33 µM: 103% |
| CCC(c1ccccc1)c1c(O)c2ccc(OCCN3CCOCC3)cc2oc1=O (centres unmarked) [Example 141, 4-Hydroxy-7-(2-morpholin-4-yl-ethoxy)-3-(1-phenyl-propyl)-chromen-2-one] | 14.2 | 77.4 | 103 | – |
| O=c1oc2ccccc2c(O)c1C1(c2ccccc2)CC1 [Example 142, 4-Hydroxy-3-(1-phenyl-cyclopropyl)-chromen-2-one] | < 10 | 15.7 | 71.8 | – |
| CCC(c1cccc(C(=O)NC2c3ccccc3CC2O)c1)c1c(O)c2ccccc2oc1=O (centres unmarked) [Example 143, N-(2-Hydroxy-indan-1-yl)-3-(1-(4-hydroxy-2-oxo-2H-chromen-3-yl)-propyl)-benzamide] | 10.8 | 77.1 | 92.1 | – |
| CCC(Cc1ccccc1)c1c(O)c2ccccc2oc1=O (centres unmarked) [Example 144, 3-(1-Benzyl-propyl)4-hydroxy-chromen-2-one] | 25.9 | 77 | 86 | – |
| O=c1oc2ccccc2c(O)c1C(CCc1ccccc1)Cc1ccccc1 (centres unmarked) [Example 145, 3-(1-Benzyl-3-phenyl-propyl)4-hydroxy-chromen-2-one] | 37 | 81 | 97 | – |
| CCCC(Cc1ccccc1)c1c(O)c2ccccc2oc1=O (centres unmarked) [Example 147, 3-(1 -Benzyl-butyl)-4-hydroxy-chromen-2-one] | 34.7 | 86.3 | 96.5 | – |
| CCC(c1cccc(C(=O)NCc2nc3ccccc3[nH]2)c1)c1c(O)c2ccccc2oc1=O (centres unmarked) [Example 148, N-(1H-Benzoimidazol-2-ylmethyl)-3-(1-(4-hydroxy-2-oxo-2H-chromen-3-yl)-propyl)-benzamide] | < 10 | 57.9 | 93.7 | – |
| CC(=O)Oc1ccc(C(C)(C)c2c(O)c3ccccc3oc2=O)cc1 [Example 150, Acetic acid 4-(1-(4-Hydroxy-2-oxo-2H-chromen-3-yl)-l-methyl-ethyl)-phenylester] | < 10 | 62.4 | 93 | – |
| CCC(c1ccccc1)c1c(O)c2ccc(OCCOCCOC)cc2oc1=O (centres unmarked) [Example 151, 4-Hydroxy-7-(2-(2-methoxy-ethoxy)-ethoxy)-3-(1-phenyl-propyl)-chromen-2-one] | 29.1 | 82.8 | 92.4 | – |
| Cc1cc(C)c2c(c1)C(c1c(O)c3ccccc3oc1=O)CCO2 (centres unmarked) [Example 153, 4-Hydroxy-6',8'-Dimethyl-3',4'-dihydro-2'H-[3',4']bicromenyl-2-one] | < 10 | 34 | – | HIV-1 Protease % Inhib (dose 100.000 uM): 79.57% and 115.36% |
| CCC(CCc1ccccc1)c1c(O)c2ccccc2oc1=O (centres unmarked) [Example 155, 3-(1-Ethyl-3-phenyl-propyl)4-hydroxy-chromen-2-one] | 15.4 | 74.9 | 91.9 | – |
| CCC(CCCc1ccccc1)c1c(O)c2ccccc2oc1=O (centres unmarked) [Example 156, 3-(1-Ethyl4-phenyl-butyl)-4-hydroxy-chromen-2-one] | 17.1 | 33.6 | 63.7 | – |
| COC(=O)C(C(=O)OC)C(c1ccccc1)c1c(O)c2ccccc2oc1=O (centres unmarked) [Example 157, 2-((4-Hydroxy-2-oxo-2H-chromen-3-yl)-phenyl-methyl)-malonic acid dimethyl ester] | < 10 | < 10 | 64 | – |
| O=c1oc2ccccc2c(O)c1C1CCOc2ccccc21 (centres unmarked) [Example 158, 4-Hydroxy-3',4'-dihydro-2'H-[3,4]bichromenyl-2-one] | < 10 | 26.7 | 93.4 | – |
| O=c1oc2ccccc2c(O)c1C(CCO)c1ccccc1 (centres unmarked) [Example 160, 4-Hydroxy-3-(3-hydroxy-1-phenyl-propyl)-chromen-2-one] | – | – | 82.6 | inhibition at 0.41 µM: < 10%; inhibition at 1.23 µM: < 10%; inhibition at 3.7 µM: < 10%; inhibition at 11 µM: 14.2%; inhibition at 33 µM: 40.4% |
| COc1ccc2c(O)c(C(c3cccc(NC(=O)OCc4ccccc4)c3)C3CC3)c(=O)oc2c1 (centres unmarked) [Example 166, Carbamic acid, [3-[cyclopropyl(4-hydroxy-7-methoxy-2-oxo-2H-1-benzopyran-3-yl)methyl]phenyl]-, phenylmethyl ester] | – | – | 100 | inhibition at 0.41 µM: < 10%; inhibition at 1.23 µM: 13.2%; inhibition at 3.7 µM: 33.4%; inhibition at 11 µM: 58.9%; inhibition at 33 µM: 89.1% |
| CCCOc1ccc2c(O)c(C(CC)c3ccccc3)c(=O)oc2c1 (centres unmarked) [Example 169, Coumarin, 4-hydroxy-3-(1-phenylpropyl)-7-propoxy] | – | 76.8 | – | inhibition at 1.1 µM (read-out: HIV-1 Protease % Inhib, dose 1.100 uM): 13.1%; inhibition at 3.3 µM (read-out: HIV-1 Protease % Inhib, dose 3.300 uM): 44.4%; inhibition at 30 µM (read-out: HIV-1 Protease % Inhib, dose 30.000 uM): 99.9% |
| COCCOCCC1CCCCCc2c1oc(=O)c(C(c1ccccc1)C1CC1)c2O (centres unmarked) [Example 172, 3-(Cyclopropylphenylmethyl)-5,6,7,8,9,10-hexahydro-4-hydroxy-10-[2-(2-methoxyethoxy)ethyl]-2H-cycloocta[b]pyran-2-one] | – | – | – | inhibition at 1.1 µM [7]: 31.9%; inhibition at 3.3 µM [8]: 73.5%; inhibition at 10 µM [5]: 97.8%; inhibition at 30 µM [9]: 110% |
| O=c1oc2c(c(O)c1C(c1ccccc1)C1CC1)CCCCCC2CO (centres unmarked) [Example 173, 3-(Cyclopropylphenylmethyl)-5,6,7,8,9,10-hexahydro-4-hydroxy-10-(hydroxymethyl)-2H-cycloocta[b]pyran-2-one] | – | – | – | inhibition at 1.1 µM [7]: 15%; inhibition at 3.3 µM [8]: 36.5%; inhibition at 10 µM [5]: 76.7%; inhibition at 30 µM [9]: 97.2% |
| CC(C)(O)C1CCCCCc2c1oc(=O)c(C(c1ccccc1)C1CC1)c2O (centres unmarked) [Example 175, 3-(Cyclopropylphenylmethyl)-5,6,7,8,9,10-hexahydro-4-hydroxy-10-(1-hydroxy-1-methylethyl)-2H-cycloocta[b]pyran-2-one] | – | – | – | inhibition at 1.1 µM [7]: 19.4%; inhibition at 3.3 µM [8]: 55.5%; inhibition at 10 µM [5]: 88.5%; inhibition at 30 µM [9]: 105% |
| COCCOCCC1CCCCc2c1oc(=O)c(C(c1ccccc1)C1CC1)c2O (centres unmarked) [Example 180, 3-(Cyclopropylphenylmethyl)-6,7,8,9-tetrahydro-4-hydroxy-9-[2-(2-methoxyethoxy)ethyl]-cyclohepta[b]pyran-2(5H)-one] | – | – | – | inhibition at 1.1 µM [7]: 31.3%; inhibition at 3.3 µM [8]: 67.7%; inhibition at 10 µM [5]: 94.1%; inhibition at 30 µM [9]: 109% |
| COCCOCCOCCC1CCCCc2c1oc(=O)c(C(c1ccccc1)C1CC1)c2O (centres unmarked) [Example 181, 3-(Cyclopropylphenylmethyl)-6,7,8,9-tetrahydro-4-hydroxy-9-[2-[2-(2-methoxyethoxy)ethoxy]ethyl]-cyclohepta[b]pyran-2(5H)-one] | – | – | – | inhibition at 1.1 µM [7]: 10.4%; inhibition at 3.3 µM [8]: 35.1%; inhibition at 10 µM [5]: 66.6%; inhibition at 30 µM [9]: 79.3% |
